HELM strings list units from the 5' end as sugar, base in round brackets, then linkage (d deoxyribose, r ribose, m 2'-O-methyl, p phosphodiester). Strings are as the collection lists them; they lack the last nucleoside at the 3' end of the tested compound. [moe] = 2'-O-(2-methoxyethyl) (MOE); [sp] = phosphorothioate linkage; [m5C] = 5-methylcytosine
The substances below were run against ATXN3 (assay: mouse, dose not given). Conditions: ASO.

Substance | 3 h FOB score [score 0-7]
RNA1{[moe](A)[sp].[moe](T)p.[moe](G)p.[moe](T)p.[moe](T)[sp].d([m5C])[sp].d(A)[sp].d(T)[sp].d(A)[sp].d(T)[sp].d([m5C])[sp].d([m5C])[sp].d(T)[sp].d(T)[sp].d(T)[sp].[moe](A)p.[moe](A)p.[moe]([m5C])[sp].[moe]([m5C])}$$$$ (last 3' nucleoside missing) | 0
RNA1{[moe](G)[sp].[moe]([m5C])p.[moe](A)p.[moe]([m5C])p.[moe](A)p.[moe](T)p.d(T)[sp].d(T)[sp].d(T)[sp].d(T)[sp].d(T)[sp].d(A)[sp].d(T)[sp].d(A)[sp].d(G)[sp].d(A)[sp].[moe](G)p.[moe](T)[sp].[moe](T)}$$$$ (last 3' nucleoside missing) | 1
RNA1{[moe](A)[sp].[moe](T)p.[moe](T)p.[moe](T)p.[moe](T)[sp].d([m5C])[sp].d(A)[sp].d(T)[sp].d(G)[sp].d(T)[sp].d(T)[sp].d([m5C])[sp].d([m5C])[sp].d(A)[sp].d(G)[sp].[moe](A)p.[moe](T)p.[moe]([m5C])[sp].[moe](A)}$$$$ (last 3' nucleoside missing) | 1
RNA1{[moe]([m5C])[sp].[moe](T)p.[moe](G)p.[moe](G)p.[moe](T)[sp].d([m5C])[sp].d(A)[sp].d(G)[sp].d(T)[sp].d(T)[sp].d(T)[sp].d([m5C])[sp].d([m5C])[sp].d(T)[sp].d(A)[sp].[moe](A)p.[moe](T)p.[moe](T)[sp].[moe](T)}$$$$ (last 3' nucleoside missing) | 0
RNA1{[moe](T)[sp].[moe](G)p.[moe](G)[sp].[moe]([m5C])[sp].[moe](A)[sp].d([m5C])[sp].d(A)[sp].d(T)[sp].d(T)[sp].d(T)[sp].d(T)[sp].d(T)[sp].d(T)[sp].d(A)[sp].d(T)[sp].[moe](A)[sp].[moe](G)p.[moe](A)[sp].[moe](G)}$$$$ (last 3' nucleoside missing) | 6
RNA1{[moe]([m5C])[sp].[moe](A)p.[moe]([m5C])p.[moe](A)p.[moe]([m5C])[sp].d(T)[sp].d(T)[sp].d(T)[sp].d([m5C])[sp].d([m5C])[sp].d(T)[sp].d([m5C])[sp].d([m5C])[sp].d(T)[sp].d([m5C])[sp].[moe](A)p.[moe](A)p.[moe](T)[sp].[moe]([m5C])}$$$$ (last 3' nucleoside missing) | 0
RNA1{[moe](T)[sp].[moe](A)p.[moe](A)p.[moe](T)p.[moe](T)[sp].d([m5C])[sp].d(T)[sp].d(T)[sp].d(G)[sp].d([m5C])[sp].d(T)[sp].d(T)[sp].d([m5C])[sp].d(A)[sp].d(A)[sp].[moe]([m5C])p.[moe]([m5C])p.[moe](A)[sp].[moe](T)}$$$$ (last 3' nucleoside missing) | 1.38
RNA1{[moe](T)[sp].[moe](A)p.[moe](A)p.[moe](T)p.[moe](A)[sp].d([m5C])[sp].d(U)[sp].d(T)[sp].d(T)[sp].d(T)[sp].d(T)[sp].d([m5C])[sp].d([m5C])[sp].d(A)[sp].d(G)[sp].[moe]([m5C])p.[moe]([m5C])p.[moe](T)[sp].[moe](T)}$$$$ (last 3' nucleoside missing) | 1
RNA1{[moe](G)[sp].[moe](T)p.[moe](T)p.[moe]([m5C])p.[moe](A)p.[moe](T)p.d(A)[sp].d(T)[sp].d([m5C])[sp].d([m5C])[sp].d(T)[sp].d(T)[sp].d(T)[sp].d(A)[sp].d(A)[sp].d([m5C])[sp].[moe]([m5C])p.[moe]([m5C])[sp].[moe](A)}$$$$ (last 3' nucleoside missing) | 0.25
RNA1{[moe](G)[sp].[moe](G)p.[moe](T)p.[moe]([m5C])p.[moe](A)p.[moe](G)p.d(T)[sp].d(T)[sp].d(T)[sp].d([m5C])[sp].d([m5C])[sp].d(T)[sp].d(A)[sp].d(A)[sp].d(T)[sp].d(T)[sp].[moe](T)p.[moe](T)[sp].[moe](A)}$$$$ (last 3' nucleoside missing) | 1
RNA1{[moe](G)[sp].[moe]([m5C])p.[moe](A)p.[moe]([m5C])p.[moe]([m5C])p.d(A)[sp].d(T)[sp].d(A)[sp].d(T)[sp].d(A)[sp].d(T)[sp].d(A)[sp].d(T)[sp].d([m5C])[sp].d(T)[sp].[moe]([m5C])p.[moe](A)p.[moe](G)[sp].[moe](A)}$$$$ (last 3' nucleoside missing) | 1
RNA1{[moe](G)[sp].[moe](G)p.[moe]([m5C])p.[moe](A)p.[moe]([m5C])p.[moe](A)p.d(T)[sp].d(T)[sp].d(T)[sp].d(T)[sp].d(T)[sp].d(T)[sp].d(A)[sp].d(T)[sp].d(A)[sp].d(G)[sp].[moe](A)p.[moe](G)[sp].[moe](T)}$$$$ (last 3' nucleoside missing) | 1
RNA1{[moe](A)[sp].[moe](T)p.[moe](G)p.[moe](A)p.[moe](G)[sp].d([m5C])[sp].d([m5C])[sp].d(A)[sp].d(A)[sp].d(T)[sp].d(A)[sp].d(T)[sp].d(T)[sp].d(T)[sp].d(A)[sp].[moe](T)p.[moe](A)p.[moe](G)[sp].[moe](G)}$$$$ (last 3' nucleoside missing) | 1
RNA1{[moe](G)[sp].[moe](G)p.[moe]([m5C])p.[moe](A)p.[moe]([m5C])p.d(A)[sp].d(T)[sp].d(T)[sp].d(T)[sp].d(T)[sp].d(T)[sp].d(T)[sp].d(A)[sp].d(T)[sp].d(A)[sp].[moe](G)p.[moe](A)p.[moe](G)[sp].[moe](T)}$$$$ (last 3' nucleoside missing) | 1.25
RNA1{[moe](T)[sp].[moe](G)p.[moe](T)p.[moe](T)p.[moe]([m5C])[sp].d(A)[sp].d(T)[sp].d(A)[sp].d(T)[sp].d([m5C])[sp].d([m5C])[sp].d(T)[sp].d(T)[sp].d(T)[sp].d(A)[sp].[moe](A)p.[moe]([m5C])p.[moe]([m5C])[sp].[moe]([m5C])}$$$$ (last 3' nucleoside missing) | 0
RNA1{[moe](T)[sp].[moe](G)p.[moe]([m5C])p.[moe](A)p.[moe]([m5C])[sp].d(A)[sp].d([m5C])[sp].d(T)[sp].d(T)[sp].d(T)[sp].d([m5C])[sp].d([m5C])[sp].d(T)[sp].d([m5C])[sp].d([m5C])[sp].[moe](T)p.[moe]([m5C])p.[moe](A)[sp].[moe](A)}$$$$ (last 3' nucleoside missing) | 0.5
RNA1{[moe](T)[sp].[moe](G)p.[moe](G)p.[moe]([m5C])p.[moe](A)p.[moe]([m5C])p.d(A)[sp].d(T)[sp].d(T)[sp].d(T)[sp].d(T)[sp].d(T)[sp].d(T)[sp].d(A)[sp].d(T)[sp].d(A)[sp].[moe](G)p.[moe](A)[sp].[moe](G)}$$$$ (last 3' nucleoside missing) | 2.75
RNA1{[moe](A)[sp].[moe](G)p.[moe](T)p.[moe](G)p.[moe]([m5C])[sp].d(T)[sp].d(A)[sp].d(T)[sp].d(A)[sp].d(A)[sp].d(T)[sp].d(T)[sp].d([m5C])[sp].d(T)[sp].d(T)[sp].[moe](G)p.[moe]([m5C])p.[moe](T)[sp].[moe](T)}$$$$ (last 3' nucleoside missing) | 0.25
